As usually defined, the inhibition is the relative decrease from the control value, in per cent.

In assay [1] the test system is STTG grade 4 astrocytoma cell line. In words: Proliferation of STTG cancer cells, Promega cell titer assay. Format: cell-based. The settings on record: 96 hours, negative number = increase. The protocol:
Assays were performed to determine the effect of Cpd. 5 (synthesis described in Example 1) on proliferation of two cancer cell lines. These two cell lines were STTG grade 4 astrocytoma cell line and AU565 breast cancer cell line. Both cell lines were obtained from American Type Culture Collection, Rockville, Md. (ATCC).
To perform the assays, a 50 mM stock solution of Cpd. 5 was prepared in DMSO and frozen at −80° C. Aliquots of the stock solution were removed and 100 μM dilutions were made in Iscove's modified Dulbecco's medium (IMDM; obtained from ATCC) supplemented with 10% fetal bovine serum (FBS) and penicillin/streptomycin solution. Controls containing equivalent amounts of DMSO to the 100 μM solution were mixed for comparative purposes. 100 μl of the resulting solutions were then added to 96 well culture plates in triplicate and placed in a 37° C. incubator with 5% CO2 to warm.
At this point, cells were removed from passage flasks using trypsin and counted using trypan blue to establish cell counts/ml and viability. For all experiments, viability of cells was greater than 95%. Solutions of 4,000 cells/100 μl were prepared in the medium from above and 100 μl of the solutions were added to each well of the plates. The plates were placed back in the incubator and incubated with the compounds for 96 hours.
Following incubation, cell proliferation was assayed by adding 20 μl Promega cell titer aqueous one reagent to each well. […] The plates were incubated at 37° C. for an additional 4-18 hours to allow the colorimetric assay to develop, and the OD of each well was determined in a microplate reader using a 530 nm filter. The OD of wells containing cell titer reagent in culture medium with no cells was subtracted from the OD of all experimental readings.
The % decrease of the total cell titer signal was determined using the following formula. […] The p values were calculated versus diluent controls.

Assay [2] relates to Akt. In words: Akt phosphorylation in AU565 breast cancer cells, CASE ELISA (S473). Format: cell-based. Particulars: Homo sapiens, IGF-1 stimulated; for inhibition at 50 µM: AU565, 50 μM. The protocol:
Assays were performed to determine the effect of Cpd. 5 (synthesis described in Example 1) on phosphorylation of Akt in the AU565 breast cancer cell line. Akt (or protein kinase B, PKB) is a serine/threonine kinase that promotes cellular survival. Akt is activated in response to many different growth factors, including IGF-1, EGF, bFGF, insulin, interleukin-3 (IL-3), IL-6, heregulin and VEGF. Akt has three isoforms, and activation of all three isoforms is similar in that phosphorylation of two sites is necessary for full activity. Once activated, Akt exerts anti-apoptotic effects through phosphorylation of substrates that directly or indirectly regulate apoptosis. Activation of the phosphatidylinositol 3 kinase (PI3K)/Akt signaling pathway contributes to tumorigenesis in many types of tissues, including breast, ovarian, brain, prostate and lymph tissues.
AU565 cells were grown in 75 cm^2 flasks using Iscove's modified Dulbecco's medium (IMDM; obtained from Lonza) supplemented with 10% fetal bovine serum (FBS, HyClone) and 1% penicillin/streptomycin solution (Lonza). Cells were removed from the flasks using trypsin/EDTA (Lonza) and counted using trypan blue to establish cell counts. […]
Following this incubation, 100 μl of serum-free IMDM containing either 0 or 400 ng/ml insulin-like growth factor-1 (IGF-1) (obtained from Sigma), an Akt phosphorylation promoter, were added, and the plates incubated at 37° C., 5% CO2, for 1 more hour. At the end of this time, the cells were fixed immediately with 4% formaldehyde, refrigerated, and the extent of phosphorylation of Akt determined using the Akt Cellular Activation of Signaling ELISA (CASE™ Kit for AKT […]; SABiosciences, Frederick, Md.) following the manufacturer's protocols. The CASE™ Kit for AKT S473 quantifies the amount of activated (phosphorylated) Akt protein relative to total Akt protein in parallel assays using a conventional ELISA format with colorimetric detection. […] Both primary antibodies are detected using a horseradish peroxidase-labeled secondary antibody. […]
The results were calculated as follows. […]

Take `COC(=O)C(c1ccc(-c2ccccc2)cc1)C1NC(=O)CNC1=O` (centres unmarked) [Cpd. 5, biphenyl-4-yl-(3,6-dioxo-piperazin-2-yl)-acetic acid methyl ester]: the “MEAN % DECREASE of cell titer signal” value in assay [1] (50 μM) worked out at 78.74%. The inhibition at 10 µM in assay [2] (AU565, 10 μM) was found to be 104%. In addition, the inhibition at 50 µM in assay [2] was 92%.
For `O=c1cc(N2CCOCC2)oc2c(-c3ccccc3)cccc12` [LY294002, reference compound], in assay [1] (20 μM), the “MEAN % DECREASE of cell titer signal” value is −46.72%. Besides, the inhibition at 50 µM in assay [2] is 92.4%.
